# In patent US9192585B2, “Inhibitors of cognitive decline” (Cognition Therapeutics, Inc., priority 2009, dated 2015):
# Experiments:
# [1] = system: Abeta oligomer-induced acceleration of exocytosis in primary neurons; test: Exocytosis assay/MTT assay (Example AA); format: cell-based; conditions: Rattus norvegicus, Primary neuron; 28 μM memantine, control; read-out: inhibition of oligomer effects
# Description: Primary neurons from E18 Sprague-Dawley rat embryos are plated at optimized concentrations in 384 well plates in NB media (Invitrogen). Neurons are maintained in cultures for 3 weeks, with twice weekly feeding of NB media with N2 supplement (Invitrogen). A test compound is added to cells, followed by addition of Vehicle or Abeta oligomer preparations (1.5 μM), and incubated for 1 to 24 hr at 37° C. in 5% CO2. MTT reagent (3-(4,5-dimethylthiazol-2-yl)-2,5diphenyl tetrazolium bromide) (Roche Molecular Biochemicals) is reconstituted in phosphate buffered saline to 5 mg/mL. 10 μL of MTT labeling reagent is added to each well and incubated at 37° C. for 1 h, then imaged. […]
# Optimal cell density is determined based on cellular response to Abeta oligomers using the exocytosis assay as a readout, and immunohistochemical analysis of the relative proportion of glia to neurons in the cultures. Cultures are monitored on a weekly basis with immunohistochemistry and image processing-based quantification to monitor the percentage of the cultures that are neurons vs. glia (Glial cells). […]
# Human amyloid peptide 1-42 is obtained from California Peptide, with lot-choice contingent upon quality control analysis. […] Toxicity is monitored in each image-based assay via quantification of nuclear morphology visualized with the DNA binding dye DAPI (Invitrogen). […]
# [2] = system: Abeta oligomer effects on membrane trafficking in primary rat neurons; test: Primary neuron-based functional screening assay, membrane trafficking (Example EE); format: cell-based; conditions: for block of Abeta oligomer effects (decrease of intracellular formazan-filled vesicles): added to cultures prior to oligomer addition, FIG. 2A
# Excerpt: Primary rat neurons grown for at least 3 weeks in vitro were chosen as the basis for this screening assay. […] More complex systems such as acute or organotypic brain slices are very useful but not amenable to high throughput screening. […] For this reason, primary neuronal cultures were chosen because of their ability to be used in high throughput screens and fidelity to what occurs in vivo.
# The MTT assay can be used as a measure of toxicity in cultures. Yellow tetrazolium salts were endocytosed by cells and reduced to insoluble purple formazan in the endosomal pathway. The level of purple formazan was a reflection of the number of actively metabolizing cells in culture, and reduction in the amount of formazan was taken as a measure of cell death or metabolic toxicity in culture.
# The exocytosis assay was adapted for use with mature primary neuronal cultures grown for 3 weeks in vitro.
# Compounds were added to neurons first, then oligomers were added.
# Data were the average of 3 experiments. Scale bar=20 micron in FIG. 2D.
# [3] = system: Abeta oligomer-mediated memory deficits; test: Fear conditioning assay (Example FF); format: in vivo; conditions: mice
# Description: CT0109 was tested in an animal model of a memory-dependent behavioral task known as fear conditioning. The study protocol was designed based on published protocols (See e.g. Puzzo D, Privitera L, Leznik E, FàM, Staniszewski A, Palmeri A, Arancio O. Picomolar amyloid-beta positively modulates synaptic plasticity and memory in hippocampus. J Neurosci. 2008 Dec. 31; 28(53):14537-45). The formation of contextual memories is dependent upon the integrity of medial temporal lobe structures such as the hippocampus. In this assay mice were trained to remember that a particular salient context (conditioned stimulus; CS) is associated with an aversive event, in this case a mild foot shock (the unconditioned stimulus, US). Animals that show good learning will express an increase in freezing behavior when placed back into the same context. This freezing is absent in a novel context. Increased freezing in the context indicates strong hippocampal-dependent memory formation in animals. Memory tested in Fear Conditioning is sensitive to elevations of soluble Aβ. […] The fear condition model for memory was performed as described herein.
smiles,measurement,setting,value
"CC12CC3CC(C)(C1)CC(N)(C3)C2 [Memantine, memantine]",inhibition at 28 µM,[1],50%
"COc1cc(CCC(C)NCc2ccc(C(F)(F)F)cc2)ccc1O (stereo not drawn) [CT0109, 4-(3-(4-(trifluoromethyl)benzylamino)butyl)-2-methoxyphenol]",EC50,"[2]; Rattus norvegicus, Neuron, FIG. 2B, read-out: EC50, inhibition of oligomer effects on membrane trafficking",7 µM
same,block of oligomer-mediated memory deficits at 2 pmol dose,"[3]; 2 pmol dose + Abeta (200 nM), FIG. 3 bar d, p<0.05",completely blocked
same,block of oligomer effects on memory,"[3]; administered prior to Abeta oligomer administration, across doses",blocked oligomer effects on memory in a dose-dependent manner
same,adverse behavioral changes,[3]; any dose,No adverse behavioral changes
same,effect of compound alone on memory,"[3]; without Abeta, data not shown",No effect
C[N+](C)(C)CCCCCC[N+](C)(C)C [hexamethonium bromide],block of Abeta oligomer effects (decrease of intracellular formazan-filled vesicles),[2],none were active
C[C@]12N[C@H](Cc3ccccc31)c1ccccc12 [MK-801],block of Abeta oligomer effects (decrease of intracellular formazan-filled vesicles),[2],none were active
O[C@H]1[C@H](O)[C@@H](O)[C@H](O)[C@@H](O)[C@@H]1O [scyllo-inositol],block of Abeta oligomer effects (decrease of intracellular formazan-filled vesicles),[2],none were active
